Experiments:
RS411 cells = assay: Cell Viability CTG Assay; format: cell-based; details: Homo sapiens, RS4-11, CellTiter Glo (CTG) cell viability, read-out: Average external-IC50
Procedure: Compounds or DMSO 60 nL were stamped to the cell plate as the platemap. RS411 cells were centrifuged at 800 rpm for 5 min, suspended with culture medium, and counted with Countess (Invitrogen). The cell density was adjusted to the recommend information. 30 μL of cell solution (1000 cells/well) was added to the assay plate as the platemap and 30 μL of media was added to column 2 and column 23 as the platemap. The plate was spun down briefly. The final concentration of the compounds started at 10 μM (3 fold dilution and 11 doses) and final DMSO concentration was 0.2%. The plate was spun down briefly and incubated at 37° C., 5% CO2 for 1 day. […] 30 μL CellTiter Glo reagent was added to each well and the plate was centrifuged at 1000 rpm for 30 sec. The plate was shaken for 1 min and centrifuged at 1000 rpm for 30 sec. The plate was incubated at RT for 10 min to stabilize the luminescent signal and the luminescence was read by EnVision.
The letter codes for IC50 indicate the concentration of compound required to affect 50% of cells: A (<0.005 μM), B (0.005-0.05 μM), C (0.05-0.5 μM), and D (>0.5 μM).

HiBiT-tagged MDM2 = biological target: T1, HiBiT-tagged MDM2 (Homo sapiens, UniProt Q00987); assay: MDM2 HiBit HEK293T degradation; format: cell-based; details: HEK293T cells stably expressing C-terminally HiBiT-tagged MDM2; 4 h; read-out: MDM2 HiBit HEK293T degradation 4 h: Average external-Abs DC50
T1 construct: expressed in transfected cells
T1 sequence (Q00987 whole entry): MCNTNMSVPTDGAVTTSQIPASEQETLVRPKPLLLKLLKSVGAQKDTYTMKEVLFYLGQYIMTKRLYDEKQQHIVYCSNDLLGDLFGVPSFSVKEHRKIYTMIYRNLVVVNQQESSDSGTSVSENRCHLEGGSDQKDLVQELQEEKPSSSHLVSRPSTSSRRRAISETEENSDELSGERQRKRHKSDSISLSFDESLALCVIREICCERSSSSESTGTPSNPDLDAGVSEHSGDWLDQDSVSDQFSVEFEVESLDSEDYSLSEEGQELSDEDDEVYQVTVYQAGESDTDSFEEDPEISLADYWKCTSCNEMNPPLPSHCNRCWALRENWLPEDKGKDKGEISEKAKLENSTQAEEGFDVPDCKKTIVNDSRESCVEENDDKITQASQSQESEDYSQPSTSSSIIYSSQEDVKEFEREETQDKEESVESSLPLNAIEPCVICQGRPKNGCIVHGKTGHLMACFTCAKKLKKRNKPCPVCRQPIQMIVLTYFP
Outline: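 Degradation was measured in HEK293T cells stably expressing C-terminally HiBiT-tagged MDM2, a pool selected with 1 microgram/ml puromycin. A MDM2 tool degrader and HaloPROTAC3 served as positive controls. Potency is reported as DC50 in letter bins.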

Row | IC50 (RS411 cells) | DC50 (HiBiT-tagged MDM2) | Compound
1 | < 5 nM | < 10 nM | Cn1c(=O)n(C2CCC(=O)NC2=O)c2ccc(CC[C@@H]3CN(C[C@H]4CC[C@H](NC(=O)[C@@H]5NC6(CCCCC6)[C@@]6(C(=O)Nc7cc(Cl)ccc76)[C@H]5c5cccc(Cl)c5F)CC4)CCO3)cc21 (stereo partly drawn) [I-21]
2 | 50 to 500 nM | > 1000 nM | COc1cc2c(cc1OC(C)C)[C@H](c1ccc(Cl)cc1)N(c1ccc(N(C)CCC3CCN(CCCCC#Cc4cccn5c(N6CCC(=O)NC6=O)cnc45)CC3)cc1)C(=O)C2 [I-22]
3 | < 5 nM | < 10 nM | Cn1c(=O)n(C2CCC(=O)NC2=O)c2ccc(CN3CCC(OC4CN(C(=O)[C@H]5CC[C@H](NC(=O)[C@@H]6NC7(CCCCC7)[C@@]7(C(=O)Nc8cc(Cl)ccc87)[C@H]6c6cccc(Cl)c6F)CC5)C4)CC3)cc21 (stereo partly drawn) [I-23]
4 | < 5 nM | < 10 nM | Cn1c(=O)n(C2CCC(=O)NC2=O)c2ccc(C3CN(C[C@H]4CC[C@H](NC(=O)[C@@H]5NC6(CCCCC6)[C@@]6(C(=O)Nc7cc(Cl)ccc76)[C@H]5c5cccc(Cl)c5F)CC4)C3)cc21 (stereo partly drawn) [I-24]
5 | < 5 nM | < 10 nM | Cn1c(=O)n(C2CCC(=O)NC2=O)c2ccc(C3CCN(C[C@H]4CC[C@H](NC(=O)[C@@H]5NC6(CCC(C)(C)CC6)[C@@]6(C(=O)Nc7cc(Cl)ccc76)[C@H]5c5ccnc(Cl)c5F)CC4)CC3)cc21 (stereo partly drawn) [I-25]
6 | < 5 nM | < 10 nM | CC1(C)CCC2(CC1)NC(C(=O)N[C@H]1CC[C@H](CN3CCN(CCCc4ccn5c(N6CCC(=O)NC6=O)cnc5c4)CC3)CC1)[C@H](c1ccnc(Cl)c1F)[C@]21C(=O)Nc2cc(Cl)ccc21 (stereo partly drawn) [I-26]
7 | < 5 nM | < 10 nM | Cn1c(=O)n(C2CCC(=O)NC2=O)c2ccc(C3CCN(C(=O)CN4CCC(NC(=O)[C@@H]5NC6(CCCCC6)[C@@]6(C(=O)Nc7cc(Cl)ccc76)[C@H]5c5cccc(Cl)c5F)CC4)CC3)cc21 (stereo partly drawn) [I-27]
8 | < 5 nM | < 10 nM | CN1[C@@H](C(=O)Nc2ccc(CN3CCC(c4ccc5c(c4)n(C)c(=O)n5C4CCC(=O)NC4=O)CC3)cc2)[C@H](c2cccc(Cl)c2F)[C@]2(C(=O)Nc3cc(Cl)ccc32)C12CCCCC2 (stereo partly drawn) [I-28]
9 | 5 to 50 nM | 10 to 100 nM | Cn1c(=O)n(C2CCC(=O)NC2=O)c2ccc(C3CCN(C(=O)CCCN4CCC(NC(=O)[C@@H]5NC6(CCCCC6)[C@@]6(C(=O)Nc7cc(Cl)ccc76)[C@H]5c5cccc(Cl)c5F)CC4)CC3)cc21 (stereo partly drawn) [I-29]
10 | < 5 nM | < 10 nM | Cn1c(=O)n(C2CCC(=O)NC2=O)c2ccc(CCCN3CCN(C(=O)[C@H]4CC[C@H](NC(=O)[C@@H]5NC6(CCCCC6)[C@@]6(C(=O)Nc7cc(Cl)ccc76)[C@H]5c5cccc(Cl)c5F)CC4)CC3)cc21 (stereo partly drawn) [I-30]
11 | < 5 nM | < 10 nM | Cn1c(=O)n(C2CCC(=O)NC2=O)c2ccc(CCN3CCN(C(=O)CN4CCC(NC(=O)[C@@H]5NC6(CCC(C)(C)CC6)[C@@]6(C(=O)Nc7cc(Cl)ccc76)[C@H]5c5ccnc(Cl)c5F)CC4)CC3)cc21 (stereo partly drawn) [I-32, (3′R,4′S,5′R)-6″-chloro-4′-(2-chloro-3-fluoropyridin-4-yl)-N-(1-(2-(4-(2-(1-(2,6-dioxopiperidin-3-yl)-3-methyl-2-oxo-2,3-dihydro-1H-benzo[d]imidazol-5-yl)ethyl)piperazin-1-yl)-2-oxoethyl)piperidin-4-yl)-4,4-dimethyl-2″-oxodispiro[cyclohexane-1,2′-pyrrolidine-3′,3″-indoline]-5′-carboxamide]
12 | 50 to 500 nM | < 10 nM | Cn1c(=O)n(C2CCC(=O)NC2=O)c2ccc(C3CN(Cc4ccc(NC(=O)[C@@H]5NC6(CCCCC6)[C@@]6(C(=O)Nc7cc(Cl)ccc76)[C@H]5c5cccc(Cl)c5F)cc4)C3)cc21 (stereo partly drawn) [I-34]
13 | 50 to 500 nM | 100 to 1000 nM | O=C1CCC(n2c(=O)n(CP(=O)(O)O)c3cc(C4CCN(C(=O)[C@H]5CC[C@H](NC(=O)[C@@H]6NC7(CCCCC7)[C@@]7(C(=O)Nc8cc(Cl)ccc87)[C@H]6c6cccc(Cl)c6F)CC5)CC4)ccc32)C(=O)N1 (stereo partly drawn) [I-35]
14 | < 5 nM | < 10 nM | Cn1c(=O)n(C2CCC(=O)NC2=O)c2ccc(C3CCN(C(=O)[C@@H]4CC[C@@H](NC(=O)[C@@H]5NC6(CCCCC6)[C@@]6(C(=O)Nc7cc(Cl)ccc76)[C@H]5c5cccc(Cl)c5F)CO4)CC3)cc21 (stereo partly drawn) [I-37]
15 | 5 to 50 nM | < 10 nM | Cn1c(=O)n(C2CCC(=O)NC2=O)c2ccc(CCCC3(C(=O)O)CCN(C[C@H]4CC[C@H](NC(=O)[C@@H]5NC6(CCCCC6)[C@@]6(C(=O)Nc7cc(Cl)ccc76)[C@H]5c5cccc(Cl)c5F)CC4)CC3)cc21 (stereo partly drawn) [I-38]
16 | 5 to 50 nM | < 10 nM | Cn1c(=O)n(C2CCC(=O)NC2=O)c2ccc(C3CCN(CCCN4CCC(NC(=O)[C@@H]5NC6(CCCCC6)[C@@]6(C(=O)Nc7cc(Cl)ccc76)[C@H]5c5cccc(Cl)c5F)CC4)CC3)cc21 (stereo partly drawn) [I-39]
17 | 50 to 500 nM | 10 to 100 nM | O=C1CCC(n2c(=O)n(CCP(=O)(O)O)c3cc(C4CCN(C(=O)[C@H]5CC[C@H](NC(=O)[C@@H]6NC7(CCCCC7)[C@@]7(C(=O)Nc8cc(Cl)ccc87)[C@H]6c6cccc(Cl)c6F)CC5)CC4)ccc32)C(=O)N1 (stereo partly drawn) [I-40]
18 | < 5 nM | < 10 nM | Cn1c(=O)n(C2CCC(=O)NC2=O)c2ccc(CCN3CCN(C(=O)[C@@H]4CC[C@@H](NC(=O)[C@@H]5NC6(CCCCC6)[C@@]6(C(=O)Nc7cc(Cl)ccc76)[C@H]5c5cccc(Cl)c5F)CO4)CC3)cc21 (stereo partly drawn) [I-41]
19 | < 5 nM | < 10 nM | O=C1CCN(c2cnc3cc(C4CCN(C(=O)[C@H]5CC[C@H](NC(=O)[C@@H]6NC7(CCCCC7)[C@@]7(C(=O)Nc8cc(Cl)ccc87)[C@H]6c6cccc(Cl)c6F)CC5)CC4)ccn23)C(=O)N1 [I-42]
20 | < 5 nM | < 10 nM | CN1[C@@H](C(=O)N[C@H]2CC[C@H](CN3CCC4(CC3)CN(CCc3ccc5c(c3)n(C)c(=O)n5C3CCC(=O)NC3=O)C4)CC2)[C@H](c2ccnc(Cl)c2F)[C@]2(C(=O)Nc3cc(Cl)ccc32)C12CCC(C)(C)CC2 (stereo partly drawn) [I-43]
21 | < 5 nM | 10 to 100 nM | Cn1c(=O)n(C2CCC(=O)NC2=O)c2ccc(C#CCC3(C(=O)O)CCN(C(=O)[C@H]4CC[C@H](NC(=O)[C@@H]5NC6(CCCCC6)[C@@]6(C(=O)Nc7cc(Cl)ccc76)[C@H]5c5cccc(Cl)c5F)CC4)CC3)cc21 (stereo partly drawn) [I-44]
22 | 5 to 50 nM | < 10 nM | O=C1CCN(c2cnc3c(C4CCN(C(=O)[C@H]5CC[C@H](NC(=O)[C@@H]6NC7(CCCCC7)[C@@]7(C(=O)Nc8cc(Cl)ccc87)[C@H]6c6cccc(Cl)c6F)CC5)CC4)cccn23)C(=O)N1 [I-45]
23 | 5 to 50 nM | < 10 nM | Cn1c(=O)n(C2CCC(=O)NC2=O)c2ccc(C#CC3CCN(C[C@H]4CC[C@H](NC(=O)[C@@H]5NC6(CCCCC6)[C@@]6(C(=O)Nc7cc(Cl)ccc76)[C@H]5c5cccc(Cl)c5F)CC4)C(=O)C3)cc21 (stereo partly drawn) [I-46]
24 | < 5 nM | < 10 nM | Cn1c(=O)n(C2CCC(=O)NC2=O)c2ccc(CN3CC(OC4CCN(C[C@H]5CC[C@H](NC(=O)[C@@H]6NC7(CCCCC7)[C@@]7(C(=O)Nc8cc(Cl)ccc87)[C@H]6c6cccc(Cl)c6F)CC5)CC4)C3)cc21 (stereo partly drawn) [I-47, (3′R,4′S,5′S)-6″-chloro-4′-(3-chloro-2-fluorophenyl)-N-((1r,4S)-4-((4-((1-((1-(2,6-dioxopiperidin-3-yl)-3-methyl-2-oxo-2,3-dihydro-1H-benzo[d]imidazol-5-yl)methyl)azetidin-3-yl)oxy)piperidin-1-yl)methyl)cyclohexyl)-2″-oxodispiro[cyclohexane-1,2′-pyrrolidine-3′,3″-indoline]-5′-carboxamide]

Reference: patent publication US20250034147A1, “MDM2 DEGRADERS AND USES THEREOF” (Kymera Therapeutics, Inc., priority 2021, published 2025)
